The record followed here is patent publication US20100041661A1, “CASPASE INHIBITORS BASED ON PYRIDAZINONE SCAFFOLD” (LG Life Sciences Ltd., priority 2006, published 2010).

As a reminder, the IC50 is the concentration that gives 50% inhibition.

One experiment has as its target T1, caspase-8 (Homo sapiens, UniProt Q14790).
T1 construct: p10 and p20 subunits (Thornberry, N. A. et al, Nature, 1992, 356, 768) were expressed in E. coli; made in house; host or cells: E. coli
The experiment in a line: Assay for the caspase inhibitory effect (fluorescent substrate AcDEVD-AFC). Particulars: pH 7.5; 2.1 nM caspase-8, 50 μM AcDEVD-AFC, 25° C., pH 7.50; read-out: Caspase-8 Kobs/[I] (converted). The format is biochemical. The method, then:
Caspase-1 and caspase-8 known as cysteine proteases in the form of α2β2 were expressed, purified, and activated by modifying a method known in Thornberry, N. A. et al, Nature, 1992, 356, 768; Thornberry, N. A. Methods in Enzymology, 1994, 244, 615; Walker, N. P. C. et al. Cell, 1994, 78, 343, and caspase-9 was also purified by a similar method, and the inhibitory activity against them was tested. Briefly describing, p10 and p20 subunits (Thornberry, N. A. et al, Nature, 1992, 356, 768) were expressed in E. coli and purified by nickel column and anionic exchange chromatography to give caspase-1, caspase-8 and caspase-9. The fluorescent substrates AcYVAD-AFC for thus obtained caspase-1, AcDEVD-AFC for caspase-8, and AcLEHD-AFC for caspase-9, were used for determining specific activity of the synthesized inhibitors. The enzyme reaction was carried out at 25° C. with various concentrations of the inhibitors in a buffer solution containing 50 mM HEPES (pH 7.50), 10% (w/v) sucrose, 0.1% (w/v) CHAPS, 100 mM NaCl, 1 mM EDTA, and 10 mM DTT in the presence of 50 μM AcYVAD-AFC for 10 nM caspase-1, 50 μM AcDEVD-AFC for 2.1 nM caspase-8, and 150 μM AcLEHD-AFC for 200 nM caspase-9. The inhibitory constants Ki and Kobs of the inhibitors were determined by measuring the reaction velocity with the time lapse using a fluorescent spectrometer and by obtaining the initial rate constant. Ki was calculated from the Lineweaver Burk Plot, and Kobs from the following Equation 1.
Kobs=−ln(1−At/Aoo)/t [Equation 1]
At means cleavage rate (%) at time t, and
Aoo means the maximum cleavage rate (%).
Spectra MAX GeminiXS Fluorescent Spectrometer of Molecular Device Co. was used at the excitation wavelength of 405 nm and the emission wavelength of 505 nm.

Experiment [1] concerns Jurkat cell (ATCC TIB-152). The experiment in a line: Fas antibody-induced apoptosis of Jurkat cells, WST-1 method. The experiment is classed as cell-based. Particulars: Homo sapiens, apoptosis induced by Fas antibody, alive cells by WST-1. The method, then: The […] inhibitory activity of the inhibitors was determined by subjecting Jurkat cell (ATCC TIB-152) to apoptosis using Fas antibody (Upstate Biotech 05-201) and by detecting the color change according to the WST-1 method known in Francoeur A. M. and Assalian A. (1996) Biochemica 3, 19-25 to observe the amount of alive Jurkat cells when the cells were treated by the inhibitor. Spectra MAX 340 Spectrometer of Molecular Device Co. was used at the absorbance wavelength of 440 nm.
In general terms: Tetrazolium assays rely on reduction of a dye to a coloured formazan, in cell work by metabolically active cells.

T1 sequence (Q14790 217-374 limits assumed, species assumed): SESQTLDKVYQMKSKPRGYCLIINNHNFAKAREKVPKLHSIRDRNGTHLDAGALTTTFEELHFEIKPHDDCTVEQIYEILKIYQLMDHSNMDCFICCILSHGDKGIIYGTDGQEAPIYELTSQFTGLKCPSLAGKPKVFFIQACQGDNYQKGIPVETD
T1 sequence (Q14790 385-479 limits assumed, species assumed): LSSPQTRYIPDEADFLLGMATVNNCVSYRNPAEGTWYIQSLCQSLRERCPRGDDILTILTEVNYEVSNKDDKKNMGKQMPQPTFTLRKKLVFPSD

`CCC(C(=O)N[C@@H](CC(=O)O)C(=O)COc1c(F)c(F)cc(F)c1F)n1nccc(Cc2ccccc2C(C)(C)C)c1=O` (stereo partly drawn) [Example 5, (S)-3-{2-[5-(2-tert-Butyl-benzyl)-6-oxo-6H-pyridazin-1-yl]-butyrylamino}-4-oxo-5-(2,3,5,6-tetrafluoro-phenoxy)-pentanoic acid]: at caspase-8, the kinact/KI was 33300 M⁻¹ s⁻¹. The compound further had an IC50 in experiment [1] of 170 nM.

In the case of `Cc1cc(Cc2ccccc2C(C)(C)C)c(=O)n(CC(=O)N[C@@H](CC(=O)O)C(=O)COc2c(F)c(F)cc(F)c2F)n1` [Example 4, (S)-3-{2-[5-(2-tert-Butyl-benzyl)-3-methyl-6-oxo-6H-pyridazin-1-yl]-acetylamino}-4-oxo-5-(2,3,5,6-tetrafluoro-phenoxy)-pentanoic acid], the kinact/KI at caspase-8 was 3330 M⁻¹ s⁻¹.

Regarding `CCC(C(=O)N[C@@H](CC(=O)O)C(=O)COc1c(F)c(F)cc(F)c1F)n1nc(Cc2ccccc2C(C)(C)C)ccc1=O` (stereo partly drawn) [Example 6, (S)-3-{2-[3-(2-tert-Butyl-benzyl)-6-oxo-6H-pyridazin-1-yl]-butyrylamino}-4-oxo-5-(2,3,5,6-tetrafluoro-phenoxy)-pentanoic acid], the kinact/KI on caspase-8 was 2830 M⁻¹ s⁻¹.

For the compound `Cc1cc(Cc2ccccc2C(C)(C)C)c(=O)n(C(C)C(=O)N[C@@H](CC(=O)O)C(=O)COc2c(F)c(F)cc(F)c2F)n1` (stereo partly drawn) [Example 3, (S)-3-{2-[5-(2-tert-Butyl-benzyl)-3-methyl-6-oxo-6H-pyridazin-1-yl]-propionylamino}-4-oxo-5-(2,3,5,6-tetrafluoro-phenoxy)-pentanoic acid], the kinact/KI at caspase-8 is 6670 M⁻¹ s⁻¹.

For the compound `CCC(C(=O)N[C@@H](CC(=O)O)C(=O)COc1c(F)c(F)cc(F)c1F)n1nc(C)cc(Cc2ccccc2C(C)(C)C)c1=O` (stereo partly drawn) [Example 2, (S)-3-{2-[5-(2-tert-Butyl-benzyl)-3-methyl-6-oxo-6H-pyridazin-1-yl]-butyrylamino}-4-oxo-5-(2,3,5,6-tetrafluoro-phenoxy)-pentanoic acid], the kinact/KI on caspase-8 was 33300 M⁻¹ s⁻¹. This compound also yielded an IC50 in experiment [1] of 330 nM.

With `CCC(C(=O)NC(CC(=O)O)C(=O)CF)n1nc(C)cc(Cc2ccccc2C(C)(C)C)c1=O` (stereo not drawn) [Example 1, 3-{2-[5-(2-tert-Butyl-benzyl)-3-methyl-6-oxo-6H-pyridazin-1-yl]-butyrylamino}-5-fluoro-4-oxo-pentanoic acid], the kinact/KI on caspase-8 was 91700 M⁻¹ s⁻¹. This compound also displayed an IC50 in experiment [1] of 140 nM.
